Results published in ChEMBL document CHEMBL3632512, “Inhibition of 3-deoxy-D-arabino-heptulosonate 7-phosphate synthase from Mycobacterium tuberculosis: in silico screening and in vitro validation” (Eur J Med Chem, 2015).
Active and inactive are the calls of the source. The rule behind the calls is not given here.

Tests used:
[1] = test system: Mycobacterium tuberculosis; assay: Inhibition of Mycobacterium tuberculosis MTCC 300 DAH7PS expressed in Escherichia coli BL21 (DE3) using 25 to 125 uM PEP/100 uM E4P as substrate up to 50 nM by spectrophotometric analysis
[2] = test system: Mycobacterium tuberculosis; assay: Inhibition of Mycobacterium tuberculosis MTCC 300 DAH7PS expressed in Escherichia coli BL21 (DE3) using 25 to 125 uM PEP/100 uM E4P as substrate at 10 uM by spectrophotometric analysis relative to control
[3] = (§1) Inhibition of Mycobacterium tuberculosis MTCC 300 DAH7PS expressed in Escherichia coli BL21 (DE3) using 25 to 125 uM PEP/100 uM E4P as substrate by spectrophotometric analysis
[4] = test system: Mycobacterium tuberculosis; assay: as §1

Row | SMILES | inhibition [1] | inhibition [2] | IC50 [3] | inhibition [4]
1 | C[C@]1(O)CC[C@@H]2C(C(=O)O)=CO[C@@H](O[C@@H]3O[C@H](CO)[C@@H](O)[C@H](O)[C@H]3OC(=O)c3ccc(O)cc3)[C@@H]21 [NEGUNDOSIDE] | inactive | 8% | 159 µM | –
2 | C[C@@H]1O[C@@H](OC[C@H]2O[C@@H](Oc3c(-c4ccc(O)c(O)c4)oc4cc(O)cc(O)c4c3=O)[C@H](O)[C@@H](O)[C@@H]2O)[C@H](O)[C@H](O)[C@H]1O [RUTIN] | inactive | 17% | 42 µM | Dose-dependent effect
3 | N[C@@H](Cc1ccc(O)cc1)C(=O)O [TYROSINE] | – | 41% | 13 µM | –
4 | O=C(/C=C/c1ccc(O)c(O)c1)O[C@@H]1C[C@](O)(C(=O)O)C[C@@H](O)[C@H]1O [CHLOROGENIC ACID] | inactive | 9% | 291 µM | –
5 | Cc1c(C)c2c(c(C)c1O)CC[C@@](C)(CCC[C@H](C)CCC[C@H](C)CCCC(C)C)O2 [ALPHA-TOCOPHEROL] | inactive | 21% | 21 µM | Dose-dependent effect
6 | O=Cc1cccnc1 [NICOTINALDEHYDE] | inactive | 16% | 54 µM | Dose-dependent effect
